Read-outs that look alike come from different tables or passages of the source.
Legend:
[1] = Viability of infected MT4 cells (cytotoxicity); type: cell-based; conditions: human, infected MT4 cells viability, three independent experiments, average ± standard deviation
Protocol: (§1) HIV-1 replication was carried out in MT4 cells as previously reported ([Corona et al., 2016a]) using a molecular clone derived from the pNL4-3 ([Thierry et al., 2015]). A total of 120 ng of p24^gag antigen per 10^6 cells, corresponding to a multiplicity of infection (m.o.i.) of 0.3, was used for infection. […] Flow cytometry analysis was performed on a FACSCalibur flow cytometer (BD Biosciences, San Jose, CA, USA), and the results were analyzed using the […] software.

HIV-1 = HIV-1 replication inhibition in MT4 cells; type: cell-based
Protocol: as §1

[2] = target: T1, HIV-1 RT-associated RNase H (Human immunodeficiency virus type 1 group M subtype B, UniProt P04585); experiment: HIV-1 DNA polymerase-independent RNase H activity determination; type: biochemical
T1 construct: The 1:1 ratio between the p66/p51 subunits was also verified; His tag (implied only by Ni-NTA IMAC purification); made in house; host or cells: Escherichia coli M15
Protocol: (§2) Escherichia coli strain M15 containing the p6HRT-prot vector (provided by Stuart Le Grice laboratory (NCI Frederick)) was grown to an optical density at 600 nm of 0.7 and induced with 1.7 mM of isopropyl β-D-1-thiogalactopyranoside (IPTG) for 4 h. Protein purification was carried out with a BioLogic LP system (Bio-Rad, Hercules, CA, USA) using a combination of immobilized metal affinity chromatography (IMAC) and ion exchange chromatography. Cell pellets were resuspended in lysis buffer (50 mM of sodium phosphate buffer, pH 7.8, containing 0.5 mg/mL of lysozyme), incubated on ice for 20 min, and, after the addition of NaCl to a final concentration of 0.3 M, were sonicated and centrifuged at 30,000 ×g for 1 h. The supernatant was loaded onto a Ni^2+-NTA-Sepharose column pre-equilibrated with loading buffer (50 mM of sodium phosphate buffer, pH 7.8, containing 0.3 M of NaCl, 10% glycerol, and 10 mM of imidazole) and washed thoroughly with wash buffer (50 mM of sodium phosphate buffer, pH 6.0, containing 0.3 M of NaCl, 10% glycerol, and 80 mM of imidazole). RT was eluted with an imidazole gradient in the wash buffer (0–0.5 M). Fractions were collected, and protein purity was checked by sodium dodecyl sulfate–polyacrylamide gel electrophoresis (SDS-PAGE) and found to be higher than 90%. The 1:1 ratio between the p66/p51 subunits was also verified. Enzyme-containing fractions were pooled and diluted 1:1 with 50 mM of sodium phosphate buffer, pH 7.0, containing 10% glycerol, and then loaded into a Hi-trap heparin HP GE (Healthcare LifeScience) pre-equilibrated with 10 column volumes of loading buffer (50 mM of sodium phosphate buffer, pH 7.0, containing 10% glycerol, and 150 mM of NaCl). The column was then washed with loading buffer, and the RT was eluted with Elute Buffer 2 (50 mM of sodium phosphate, pH 7.0, 10% glycerol, 1 M of NaCl). Fractions were collected, and the protein was dialyzed and stored in a buffer containing 50 mM of Tris-HCl, pH 7.0, 25 mM of NaCl, 1 mM of EDTA, and 50% glycerol. Catalytic activities and protein concentrations were determined. Enzyme-containing fractions were pooled, and aliquots were stored at −80°C.
HIV RT-associated RNase H activity was measured as described ([Corona et al., 2016b]) in a 100-µl reaction volume containing 50 mM of Tris-HCl buffer, pH 7.8, 6 mM of MgCl2, 1 mM of dithiothreitol (DTT), 80 mM of KCl, 0.25 µM of hybrid RNA/DNA 5′-[…]-Fluorescin-3′ (high-performance liquid chromatography (HPLC), dry, QC: Mass Check) (available from Metabion) 5′-Dabcyl-[…]-3′ (HPLC, dry, QC: Mass Check), increasing concentrations of inhibitors, whose dilution were made in water, and different amounts of enzymes according to a linear range of the dose–response curve. The reaction mixture was incubated for 1 h at 37°C and stopped by the addition of EDTA, and products were measured with a multilabel counter plate reader Victor 3 equipped with filters for 490/528 nm.

HIV-1 RT-associated RDDP = target: T2, HIV-1 RT-associated RDDP (Human immunodeficiency virus type 1 group M subtype B, UniProt P04585); experiment: HIV-1 RNA-dependent DNA polymerase activity determination; type: biochemical
T2 construct: The 1:1 ratio between the p66/p51 subunits was also verified; His tag (implied only by Ni-NTA IMAC purification); made in house; host or cells: Escherichia coli M15
Protocol: as §2
RDDP activity was measured as previously reported in 25-µl volume containing 60 mM of Tris‐HCl buffer, pH 8.1, 8 mM of MgCl2, 60 mM of KCl, 13 mM of DTT, 2.5 µM of poly(A)-oligo(dT), 100 µM of dTTP, increasing concentrations of inhibitors, whose dilution were made in water, and different amounts of enzymes according to a linear range of the dose–response curve. The reaction mixture was incubated for 30 min at 37°C and then stopped by the addition of EDTA. Reaction products were detected by pico green addition and measured with a multilabel counter plate reader Victor 3, equipped with filters for 502/523 nm.

[3] = Human immunodeficiency virus 1, MT4, viral replication in MT4 cells, three independent experiments, average ± standard deviation, read-out: HIV-1 EC50
[4] = wt HIV-1 RT, three independent experiments, average ± standard deviation, read-out: RNase H IC50
[5] = wt HIV-1 RT, three independent experiments, average ± standard deviation, read-out: RDDP IC50
[6] = Human immunodeficiency virus 1, MT4, read-out: HIV-1 EC50
[7] = wt HIV-1 RT, three independent experiments, average ± standard deviation

SMILES | CC50 ([1]; MT4 cells infected with HIV-1) [µM] | EC50 (HIV-1; [3]) [µM] | IC50 [2, 4] [µM] | IC50 (HIV-1 RT-associated RDDP; [5]) [µM] | CC50 [1] [µM] | EC50 (HIV-1; [6]) [µM] | IC50 [2] [µM] | IC50 (HIV-1 RT-associated RDDP) [µM] | RNase H IC50 [2, 7]
O=C1Nc2ccc(Cl)cc2C1=NNc1nc(-c2ccc(Cl)cc2)cs1 [1b] | > 100 | > 100 | 12 ± 2.3 | 30 ± 7.5 |  |  |  |  | 
Cn1c(-c2ccc(Cl)cc2)cs/c1=N\N=C1/C(=O)Nc2ccc([N+](=O)[O-])cc21 [1c] | 42 ± 8 | > 42 | 8.2 ± 1 | 24 ± 3 |  |  |  |  | 
O=C1Nc2ccc([N+](=O)[O-])cc2/C1=N/Nc1nc(-c2ccc(F)cc2)cs1 [2a] | > 100 | > 100 | 5.1 ± 2 | 9.5 ± 0.5 |  |  |  |  | 
O=C1Nc2ccc(Cl)cc2/C1=N/Nc1nc(-c2ccc(F)cc2)cs1 [2b] | 56 ± 6 | > 56 | 4.5 ± 0.2 | 7.5 ± 1.5 |  |  |  |  | 
Cn1c(-c2ccc(F)cc2)cs/c1=N\N=C1/C(=O)Nc2ccc([N+](=O)[O-])cc21 [2c] | 7 ± 1.6 | > 7 | 5.6 ± 0.6 | 21 ± 1 |  |  |  |  | 
O=C1Nc2ccc(Cl)cc2/C1=N/Nc1nc(-c2ccc(Br)cc2)cs1 [3b] | 95 ± 14 | > 95 | 4.4 ± 0.1 | 8.3 ± 0.6 |  |  |  |  | 
Cn1c(-c2ccc(Br)cc2)cs/c1=N\N=C1/C(=O)Nc2ccc([N+](=O)[O-])cc21 [3c] | 25 ± 3.1 | > 25 | 7.7 ± 1.2 | 19.5 ± 3.3 |  |  |  |  | 
O=C1Nc2ccc([N+](=O)[O-])cc2/C1=N/Nc1nc(-c2ccc([N+](=O)[O-])cc2)cs1 [4a] |  |  |  |  | > 100 | > 100 | 7.6 ± 1.4 | 21 ± 3 | 
O=C1Nc2ccc(Cl)cc2/C1=N/Nc1nc(-c2ccc([N+](=O)[O-])cc2)cs1 [4b] | 50 ± 12 | > 50 | 15.3 ± 1.5 | 14.9 ± 2.7 |  |  |  |  | 
Cn1c(-c2ccc([N+](=O)[O-])cc2)cs/c1=N\N=C1/C(=O)Nc2ccc([N+](=O)[O-])cc21 [4c] |  |  |  |  | 5.5 ± 0.9 | > 5.5 | 1.9 ± 0.2 | 6 ± 0.5 | 
O=C1Nc2ccc([N+](=O)[O-])cc2/C1=N/Nc1nc(-c2ccc(-c3ccccc3)cc2)cs1 [5a] | > 100 | > 100 | 7.1 ± 0.1 | 12 ± 3 |  |  |  |  | 
O=C1Nc2ccc(Cl)cc2/C1=N/Nc1nc(-c2ccc(-c3ccccc3)cc2)cs1 [5b] |  |  | 13.2 ± 1.6 | 38 ± 5 |  |  |  |  | 
Cn1c(-c2ccc(-c3ccccc3)cc2)cs/c1=N\N=C1/C(=O)Nc2ccc([N+](=O)[O-])cc21 [5c] | 7 ± 1.4 | > 7 | 6.1 ± 1.1 | 11.4 ± 2.2 |  |  |  |  | 
N#Cc1ccc(-c2csc(N/N=C3\C(=O)Nc4ccc([N+](=O)[O-])cc43)n2)cc1 [6a] | > 100 | > 100 | 6 ± 0.1 | 9.3 ± 0.3 |  |  |  |  | 
N#Cc1ccc(-c2csc(N/N=C3\C(=O)Nc4ccc(Cl)cc43)n2)cc1 [6b] | 95 ± 5 | > 95 | 7.8 ± 0.1 | 34 ± 6 |  |  |  |  | 
Cn1c(-c2ccc(C#N)cc2)cs/c1=N\N=C1/C(=O)Nc2ccc([N+](=O)[O-])cc21 [6c] |  |  | 100 ± 5 | 12.1 ± 1.6 |  |  |  |  | active only toward the RDDP function

SMILES | CC50 ([1]; MT4 cells infected with HIV-1) [µM] | EC50 (HIV-1; [3]) [µM] | IC50 [2, 4] [µM] | IC50 (HIV-1 RT-associated RDDP; [5]) [µM] | CC50 [1] [µM] | EC50 (HIV-1; [6]) [µM] | IC50 [2] [µM] | IC50 (HIV-1 RT-associated RDDP) [µM] | RNase H IC50 [2, 7]
O=C1Nc2ccc([N+](=O)[O-])cc2/C1=N/Nc1nc(-c2ccc(F)cc2F)cs1 [7a] |  |  | 6 ± 0.1 | 11.5 ± 0.5 |  |  |  |  | 
O=C1Nc2ccc(Cl)cc2/C1=N/Nc1nc(-c2ccc(F)cc2F)cs1 [7b] |  |  | 6 ± 1.5 | 10 ± 1 |  |  |  |  | 
O=C1Nc2ccc([N+](=O)[O-])cc2/C1=N/Nc1nc(-c2cccc([N+](=O)[O-])c2)cs1 [8a] |  |  | 6.5 ± 0.5 | 18.5 ± 0.5 |  |  |  |  | 
O=C1Nc2ccc(Cl)cc2/C1=N/Nc1nc(-c2cccc([N+](=O)[O-])c2)cs1 [8b] |  |  | 22 ± 1 | 72 ± 13 |  |  |  |  | 
Cn1c(-c2cccc([N+](=O)[O-])c2)cs/c1=N\N=C1/C(=O)Nc2ccc([N+](=O)[O-])cc21 [8c] |  |  | 100 ± 20 | 8.7 ± 1.5 |  |  |  |  | active only toward the RDDP function
O=C1Nc2ccc([N+](=O)[O-])cc2/C1=N/Nc1nc(-c2ccc(Cl)c(Cl)c2)cs1 [9a] | > 100 | > 100 | 6.5 ± 0.5 | 11.5 ± 0.5 |  |  |  |  | 
Cn1c(-c2ccc(Cl)c(Cl)c2)cs/c1=N\N=C1/C(=O)Nc2ccc([N+](=O)[O-])cc21 [9c] | 5 ± 1.3 | > 5 | 1.9 ± 0.7 | 15.1 ± 0.5 |  |  |  |  | 
Cc1ccc(-c2csc(NN=C3C(=O)Nc4ccc(Cl)cc43)n2)cc1 [10b] | > 100 | > 100 | 10 ± 1.4 | 18 ± 0.7 |  |  |  |  | 
Cc1ccc(-c2cs/c(=N\N=C3/C(=O)Nc4ccc([N+](=O)[O-])cc43)n2C)cc1 [10c] | 10 ± 2.7 | > 10 | 6.8 ± 1.4 | 16.9 ± 2.3 |  |  |  |  | 
COc1ccc(-c2csc(N/N=C3\C(=O)Nc4ccc([N+](=O)[O-])cc43)n2)cc1 [11a] | > 100 | > 100 | 8.5 ± 0.6 | 14.5 ± 0.5 |  |  |  |  | 
COc1ccc(-c2csc(N/N=C3\C(=O)Nc4ccc(Cl)cc43)n2)cc1 [11b] | 70 ± 9 | > 70 | 7 ± 1 | 16.2 ± 2.8 |  |  |  |  | 
COc1ccc(-c2cs/c(=N\N=C3/C(=O)Nc4ccc([N+](=O)[O-])cc43)n2C)cc1 [11c] | 2 ± 0.4 | > 2 | 4 ± 1.4 | 11.2 ± 2.2 |  |  |  |  | 
O=C1Nc2ccc([N+](=O)[O-])cc2/C1=N/Nc1nc(-c2ccccc2)cs1 [12a] | > 100 | > 100 | 6 ± 1 |  |  |  |  | 13 ± 2 | 
O=C1Nc2ccc(Cl)cc2/C1=N/Nc1nc(-c2ccccc2)cs1 [12b] | 70 ± 5 | > 70 | 5.4 ± 0.6 | 9.4 ± 1.1 |  |  |  |  | 
Cn1c(-c2ccccc2)cs/c1=N\N=C1/C(=O)Nc2ccc([N+](=O)[O-])cc21 [12c] | 10 ± 1.2 | > 10 | 3.6 ± 0.8 | 8.1 ± 0.1 |  |  |  |  | 
